One sequence from US9993534B2, “Method of treating fungal infection” (Wisconsin Alumni Research Foundation, priority 2013, dated 2018) can be followed below.

The test deals with 1807 cells. The format is cell-based, mouse. As to conditions: Calnexin peptide #1, 13 amino acid sequence of the named species.

As for LVLKSRAKHHAIS [Homo sapiens (Calmegin)], the 1807 reactive entry is reported as “not reactive with the 1807 cells”.
